pIC50: −log10 of the molar value. Counter-ions that a name gives are not always drawn.
Target: T1, native human transporter GlyT1 (Homo sapiens, UniProt P48067)
T1 construct: SK-N-MC cells (human neuroepithelial cells) expressing the native human transporter GlyT1; endogenous in cells; host or cells: SK-N-MC (human neuroepithelial cells)
T1 sequence (P48067 1-706): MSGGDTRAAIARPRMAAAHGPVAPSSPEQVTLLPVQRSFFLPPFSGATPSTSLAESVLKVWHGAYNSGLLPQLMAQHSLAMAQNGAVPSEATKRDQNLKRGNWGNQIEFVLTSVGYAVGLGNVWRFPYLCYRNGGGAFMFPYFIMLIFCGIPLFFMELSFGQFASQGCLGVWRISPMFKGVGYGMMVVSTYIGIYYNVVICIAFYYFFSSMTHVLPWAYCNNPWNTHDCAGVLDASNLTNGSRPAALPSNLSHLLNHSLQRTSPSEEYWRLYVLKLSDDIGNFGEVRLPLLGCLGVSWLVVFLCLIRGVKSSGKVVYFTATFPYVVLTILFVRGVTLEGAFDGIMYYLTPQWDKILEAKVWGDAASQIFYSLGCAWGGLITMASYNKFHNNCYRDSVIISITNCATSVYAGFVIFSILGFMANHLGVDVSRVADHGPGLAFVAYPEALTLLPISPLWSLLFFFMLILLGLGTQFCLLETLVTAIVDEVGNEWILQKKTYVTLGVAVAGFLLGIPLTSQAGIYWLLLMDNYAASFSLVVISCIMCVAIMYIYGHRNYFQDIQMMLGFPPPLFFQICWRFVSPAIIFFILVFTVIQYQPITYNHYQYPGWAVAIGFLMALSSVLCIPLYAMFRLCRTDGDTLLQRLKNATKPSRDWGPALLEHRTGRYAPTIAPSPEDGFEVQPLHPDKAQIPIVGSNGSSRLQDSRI
Assay: Uptake of [14C]glycine in SK-N-MC cells expressing the native human transporter GlyT1
Assay type: cell-based
Conditions: 10 μM [14C]glycine, 10 min preincubation and 10 min incubation at 37° C., pH 7.4, read-out: IC50, the concentration of the compound which reduces by 50% the specific uptake of glycine
Experimental: Study of glycine transportation in SK-N-MC cells expressing the native human transporter GlyT1.
The uptake of [^14C]glycine is studied in SK-N-MC cells (human neuroepithelial cells) expressing the native human transporter GlyT1 by measuring the radioactivity incorporated in the presence or absence of the test compound. The cells are cultured as a monolayer for 48 hours in plates pretreated with 0.02% fibronectin. On the day of the experiment, the culture medium is removed and the cells are washed with Krebs-HEPES (4-(2-hydroxyethyl)piperazine-1-ethanesulphonic acid) buffer at pH 7.4. After preincubation for 10 minutes at 37° C. in the presence either of buffer (control batch) or of test compound at various concentrations or of 10 mM of glycine (determination of the non-specific uptake), 10 μM of [^14C]glycine (specific activity 112 mCi/mmol) are subsequently added. Incubation is continued for 10 min at 37° C. and the reaction is halted by washing twice with pH 7.4 Krebs-HEPES buffer. The radioactivity incorporated by the cells is then estimated after adding 100 μl of liquid scintillant and stirring for 1 h. Counting is carried out on a Microbeta Tri-Lux™ counter. The effectiveness of the compound is determined by the IC50, the concentration of the compound which reduces by 50% the specific uptake of glycine, defined by the difference in radioactivity incorporated by the control batch and the batch which received the 10 mM glycine.

| pIC50 | Compound |
| --- | --- |
| 7.64 | O=C(N[C@H](c1ccccc1)[C@@H]1CCC[C@H]2CCCN21)c1cccc(C(F)(F)F)c1Cl (racemic) [Compound 2, trans-erythro-2-chloro-N-[(octahydroindolizin-5-yl)phenylmethyl]-3-trifluoromethyl-benzamide hydrochloride 1:1] |
| 8.52 | O=C(NC(c1ccccc1)C1CCC2CCCCN21)c1cccc(C(F)(F)F)c1Cl (racemic) [Compound 5, trans-threo-2-Chloro-N-[(octahydroindolizin-3-yl)phenylmethyl]-3-trifluoromethyl-benzamide hydrochloride 1.1] |
| 7.10 | O=C(NC(c1ccccc1)C1CCCC2CCCN21)c1cccc(C(F)(F)F)c1Cl (racemic) [Compound 1, trans-threo-2-Chloro-N-[(octahydroindolizin-5-yl)phenylmethyl]-3-trifluoromethyl-benzamide hydrochloride 1:1] |

Test system: not given
Assay: not given
Conditions: not given

| melting point [°C] | Compound |
| --- | --- |
| 132 to 134 | O=C(NC(c1ccccc1)C1CCCC2CCCN21)c1cccc(C(F)(F)F)c1Cl (racemic) (as salt: HCl) [Compound 1, trans-threo-2-Chloro-N-[(octahydroindolizin-5-yl)phenylmethyl]-3-trifluoromethyl-benzamide hydrochloride 1:1] |
| 132 to 134 | O=C(N[C@H](c1ccccc1)[C@@H]1CCC[C@H]2CCCN21)c1cccc(C(F)(F)F)c1Cl (racemic) (as salt: HCl) [Compound 2, trans-erythro-2-chloro-N-[(octahydroindolizin-5-yl)phenylmethyl]-3-trifluoromethyl-benzamide hydrochloride 1:1] |
| 138 to 139 | O=C(NC(c1ccccc1)C1CCC2CCCCN21)c1cccc(C(F)(F)F)c1Cl (racemic) (as salt: HCl) [Compound 5, trans-threo-2-Chloro-N-[(octahydroindolizin-3-yl)phenylmethyl]-3-trifluoromethyl-benzamide hydrochloride 1.1] |

Source: patent US7776880B2, “Derivatives of pyrrolizine, indolizine and quinolizine, preparation thereof and therapeutic use thereof” (sanofi-aventis, priority 2006, dated 2010)
